# Measurements reported in BindingDB's records for PubMed 10411588 (The University of Calgary, 1999).
# Where a SMILES comes first, the peptide text is derived from it.
# Biological target: T1, Proteinase-activated receptor 2 (Rattus norvegicus, UniProt Q63645)
# T1 sequence (Q63645 whole entry): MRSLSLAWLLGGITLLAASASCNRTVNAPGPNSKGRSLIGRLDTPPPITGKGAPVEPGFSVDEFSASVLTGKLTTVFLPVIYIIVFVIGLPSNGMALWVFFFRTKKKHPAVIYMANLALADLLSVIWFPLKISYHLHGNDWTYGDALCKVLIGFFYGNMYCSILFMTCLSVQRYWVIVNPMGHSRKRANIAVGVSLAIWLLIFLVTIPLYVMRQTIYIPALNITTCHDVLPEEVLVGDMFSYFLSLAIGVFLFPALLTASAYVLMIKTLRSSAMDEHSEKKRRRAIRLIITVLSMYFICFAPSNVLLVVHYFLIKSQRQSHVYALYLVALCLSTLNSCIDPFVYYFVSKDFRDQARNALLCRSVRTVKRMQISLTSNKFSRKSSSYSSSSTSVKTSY
row,Ki,Compound
1,260 nM,CC[C@H](C)[C@H](NC(=O)[C@H](CC(C)C)NC(=O)C=Cc1ccccc1)C(=O)NCC(=O)N[C@@H](CCCNC(=N)N)C(=O)N[C@@H](CC(C)C)C(=O)N[C@@H](CCCN)C(N)=O [trans-cinnamoyl-LIGRLO-NH2] (HELM PEPTIDE1{[O=C(C=Cc1ccccc1)[*:2]].L.I.G.R.L.[Orn].[am]}$$$$V2.0)
2,2300 nM,CC(C)C[C@H](NC(=O)[C@H](CC(C)C)NC(=O)[C@H](Cc1ccccc1)NC(=O)[C@@H](N)CO)C(=O)N[C@@H](CCCN=C(N)N)C(N)=O [SFLLR-NH2]
3,> 10000 nM,CC(C)C[C@H](NC(=O)[C@H](CC(C)C)NC(=O)[C@H](Cc1ccccc1)NC(=O)[C@@H](N)CO)C(=O)N[C@@H](CCCN=C(N)N)C(=O)O [SFLLR-OH]

row,Compound,Ki
1,CC[C@H](C)[C@H](NC(=O)[C@H](CC(C)C)NC(=O)[C@@H](N)CO)C(=O)NCC(=O)N[C@@H](CCCNC(=N)N)C(=O)N[C@@H](CC(C)C)C(N)=O [CAS_171436-38-7] (H-SLIGRL-NH2),260 nM
